IC50 data for 8 compounds are collected here from patent US20260306642A1, “STAT DEGRADERS AND USES THEREOF” (Recludix Pharma, Inc., priority 2023, published 2026).

The target in the first experiment is T1, pSTAT6 (Homo sapiens, UniProt P42226).
T1 sequence (P42226 1-847): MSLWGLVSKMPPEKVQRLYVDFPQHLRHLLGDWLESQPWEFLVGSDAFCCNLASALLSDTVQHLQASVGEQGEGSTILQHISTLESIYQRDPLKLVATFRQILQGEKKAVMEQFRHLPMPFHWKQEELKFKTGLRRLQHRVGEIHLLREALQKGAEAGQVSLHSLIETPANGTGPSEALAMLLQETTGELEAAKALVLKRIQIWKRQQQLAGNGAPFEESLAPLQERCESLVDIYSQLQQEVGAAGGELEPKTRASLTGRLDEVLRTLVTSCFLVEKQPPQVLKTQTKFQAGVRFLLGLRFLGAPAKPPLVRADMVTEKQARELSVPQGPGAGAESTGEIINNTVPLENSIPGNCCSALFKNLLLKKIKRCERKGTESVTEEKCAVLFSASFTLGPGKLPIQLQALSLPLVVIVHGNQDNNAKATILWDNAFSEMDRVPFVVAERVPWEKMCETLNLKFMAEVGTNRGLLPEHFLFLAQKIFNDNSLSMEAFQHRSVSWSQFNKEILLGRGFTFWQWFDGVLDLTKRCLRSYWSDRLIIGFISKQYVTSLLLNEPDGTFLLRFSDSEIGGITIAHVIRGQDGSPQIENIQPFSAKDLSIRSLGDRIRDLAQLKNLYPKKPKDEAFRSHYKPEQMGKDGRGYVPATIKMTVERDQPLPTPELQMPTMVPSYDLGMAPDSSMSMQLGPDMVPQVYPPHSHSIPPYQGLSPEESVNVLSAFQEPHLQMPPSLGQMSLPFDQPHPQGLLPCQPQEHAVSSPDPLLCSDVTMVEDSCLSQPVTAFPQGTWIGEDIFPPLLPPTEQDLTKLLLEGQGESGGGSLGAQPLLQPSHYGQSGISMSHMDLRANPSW
Description: MSD-pSTAT-PBMC Assay (pSTAT6, IL-4 stimulated). It is filed as cell-based. The settings on record: compound 3 hrs, then 1 ng/mL IL-4 10 min, pY641-STAT6, read-out: pSTAT6 IC50. An excerpt:
Cryopreserved Peripheral Blood Mononuclear Cells (PBMC) are from AllCells. Recombinant Human IL-4 and IL-6 are from Peprotech. Mouse monoclonal anti-STAT3 antibody, rabbit monoclonal anti-pY705-STAT3 antibody, rabbit monoclonal Anti-pY641-STAT6 antibody, and lysis buffer are from Cell Signaling Technology (CST). Mouse monoclonal anti-STAT6 antibody is from BioLegend. Assay plates, blocker, and anti-rabbit secondary antibody are from Meso Scale Discovery (MSD).
Cryopreserved PBMCs were thawed out and allowed to recover overnight in IMDM+10% heat-inactivated FBS prior to plating 50,000 (STAT3) or 25,000 (STAT6) cells per well in 96-well U-bottom tissue culture plates. Cells were treated with compound for 3 hrs, then stimulated with 10 ng/mL IL-6 (STAT3) or 1 ng/mL IL-4 (STAT6) for 10 min. Cells were then spun down and washed with ice-cold PBS prior to lysing the cell pellet with 1× lysis buffer (CST) with 1× HALT protease and phosphatase inhibitor cocktail (Thermo). Lysates were transferred to and incubated overnight at 4° C. with shaking in QuickPlex 96-well high bind assay plates (MSD) pre-coated overnight with 30 μL per well of […] mouse monoclonal anti-STAT3 antibody (STAT3) or 2 μg/mL mouse monoclonal anti-STAT6 antibody (STAT6) in 1× PBS, and pre-blocked for 1 hour with 3% Blocker-A (MSD). Captured protein in the assay plates were then washed and probed with 25 μL per well of […] rabbit monoclonal anti-pY705-STAT3 antibody (STAT3) or […] rabbit monoclonal Anti-pY641-STAT6 antibody (STAT6) in 1% Blocker-A for 1 hour at room temperature with shaking, then washed and probed with 25 ul per well of 1 ug/ml Sulfo-TAG Labeled Goat Anti-Rabbit Antibody (MSD) in 1% Blocker-A for 1 hour at room temperature with shaking. Assay plates were then washed and 150 μL of 1× Read Buffer-T (MSD) was added to each well prior to reading on an SQ120 MSD Plate Reader. Assay signal from each sample was subtracted by the signal from unstimulated control wells and normalized to DMSO control wells. IC50 values were calculated using Graph Pad Prism Dose-Response Nonlinear Regression with variable slope. For both pSTAT3 and pSTAT6 A=≤100 nM; B=>100-1000 nM; C=>1000-3000 nM; and D=>3 μM.
As to `CCCC(=O)SCCOP(=O)(OCCSC(=O)CCC)C(F)(F)c1ccc2sc(C(=O)N[C@H]3CCCC[C@H]4CC[C@@H](C(=O)N5C[C@@H](C#N)[C@H](c6cccc(OCCCCCC#Cc7cccc8c7CN(C7CCC(=O)NC7=O)C8=O)c6)C5)N4C3=O)cc2c1` (relative stereo) [Compound 14, S,S(((((2-(((3S,6S,10aS)-3-((rel-3S,4R)-3-cyano-4-(3-((7-(2-(2,6-dioxopiperidin-3-yl)-1-oxoisoindolin-4-yl)hept-6-yn-1-yl)oxy)phenyl)pyrrolidine-1-carbonyl)-5-oxodecahydropyrrolo[1,2-a]azocin-6-yl)carbamoyl)benzo[b]thiophen-5-yl)difluoromethyl)phosphoryl)bis(oxy))bis(ethane-2,1-diyl)) dibutanethioate], the IC50 fell in the range of 0.1 to 1 µM.
On the same count and under the same terms, next, `CCCC(=O)SCCOP(=O)(OCCSC(=O)CCC)C(F)(F)c1ccc2sc(C(=O)NC3CCCCC4CCC(C(=O)N5CC(C#N)C(c6cccc(OCCCCOc7ccc(C8CCC(=O)NC8=O)cc7)c6)C5)N4C3=O)cc2c1` [Compound 4, trans-S,S(((((2-(((3S,6S,10aS)-3-(3-cyano-4-(3-(4-(4-(2,6-dioxopiperidin-3-yl)phenoxy)butoxy)phenyl)pyrrolidine-1-carbonyl)-5-oxodecahydropyrrolo[1,2-a]azocin-6-yl)carbamoyl)benzo[b]thiophen-5-yl)difluoromethyl)phosphoryl)bis(oxy))bis(ethane-2,1-diyl)) dibutanethioate]: below 0.1 µM.
Same read-out and setting: next, `CCCC(=O)SCCOP(=O)(OCCSC(=O)CCC)C(F)(F)c1ccc2sc(C(=O)N[C@H]3CCCC[C@H]4CC[C@@H](C(=O)N5C[C@@H](c6ccn(CCCCCCC#Cc7cccc8c7CN(C7CCC(=O)NC7=O)C8=O)c(=O)c6)CC56CC6)N4C3=O)cc2c1` (stereo partly drawn) [Compound 6, S,S((((2-(((3S,6S,10aS)-3-((6R)-6-(1-(8-(2-(2,6-dioxopiperidin-3-yl)-1-oxoisoindolin-4-yl)oct-7-yn-1-yl)-2-oxo-1,2-dihydropyridin-4-yl)-4-azaspiro[2.4]heptane-4-carbonyl)-5-oxodecahydropyrrolo[1,2-a]azocin-6-yl)carbamoyl)benzo[b]thiophen-5-yl)difluoromethyl)phosphoryl)bis(oxy))bis(ethane-2,1-diyl)) dibutanethioate]: below 0.1 µM; `CCCC(=O)SCCOP(=O)(OCCSC(=O)CCC)C(F)(F)c1ccc2sc(C(=O)NC3CCCCC4CCC(C(=O)N5CC(C#N)C(c6cccc(OCCOCCOc7cccc8c7CN(C7CCC(=O)NC7=O)C8=O)c6)C5)N4C3=O)cc2c1` [Compound 15, S,S(((((2-(((3S,6S,10aS)-3-((rel-3S,4R)-3-cyano-4-(3-(2-(2-((2-(2,6-dioxopiperidin-3-yl)-1-oxoisoindolin-4-yl)oxy)ethoxy)ethoxy)phenyl)pyrrolidine-1-carbonyl)-5-oxodecahydropyrrolo[1,2-a]azocin-6-yl)carbamoyl)benzo[b]thiophen-5-yl)difluoromethyl)phosphoryl)bis(oxy))bis(ethane-2,1-diyl)) dibutanethioate]: below 0.1 µM; `CCCC(=O)SCCOP(=O)(OCCSC(=O)CCC)C(F)(F)c1ccc2sc(C(=O)N[C@H]3CCCC[C@H]4CC[C@@H](C(=O)N5C[C@@H](c6ccn(CCCCCOc7ccc(C8CCC(=O)NC8=O)cc7)c(=O)c6)CC56CC6)N4C3=O)cc2c1` (stereo partly drawn) [Compound 18, S,S(((((2-(((3S,6S,10aS)-3-((6R)-6-(1-(5-(4-(2,6-dioxopiperidin-3-yl)phenoxy)pentyl)-2-oxo-1,2-dihydropyridin-4-yl)-4-azaspiro[2.4]heptane-4-carbonyl)-5-oxodecahydropyrrolo[1,2-a]azocin-6-yl)carbamoyl)benzo[b]thiophen-5-yl)difluoromethyl)phosphoryl)bis(oxy))bis(ethane-2,1-diyl)) dibutanethioate]: below 0.1 µM.
The same measure, in the same setting: next, `CCCC(=O)SCCOP(=O)(OCCSC(=O)CCC)C(F)(F)c1ccc2sc(C(=O)N[C@H]3CCCC[C@H]4CC[C@@H](C(=O)N5C[C@@H](c6ccn(CCOCCOCCOc7cccc8c7CN(C7CCC(=O)NC7=O)C8=O)c(=O)c6)CC56CC6)N4C3=O)cc2c1` (stereo partly drawn) [Compound 26, S,S((((2-(((3S,6S,10aS)-3-((6R)-6-(1-(2-(2-(2-((2-(2,6-dioxopiperidin-3-yl)-1-oxoisoindolin-4-yl)oxy)ethoxy)ethoxy)ethyl)-2-oxo-1,2-dihydropyridin-4-yl)-4-azaspiro[2.4]heptane-4-carbonyl)-5-oxodecahydropyrrolo[1,2-a]azocin-6-yl)carbamoyl)benzo[b]thiophen-5-yl)difluoromethyl)phosphoryl)bis(oxy))bis(ethane-2,1-diyl)) dibutanethioate]: 0.1 to 1 µM.

The same experiment, now with this note: read-out: pSTAT6 IC50, compound 3 hrs, then 1 ng/mL IL-4 10 min, pY641-STAT6.
As to `CCCC(=O)SCCOP(=O)(OCCSC(=O)CCC)C(F)(F)c1ccc2sc(C(=O)NC3CCCCC4CCC(C(=O)N5CC(C#N)C(c6cccc(N7CCN(c8ccc9c(c8)[nH]c(=O)n9C8CCC(=O)NC8=O)CC7)c6)C5)N4C3=O)cc2c1` [Compound 23, S,S(((((2-(((3S,6S,10aS)-3-((rel-3S,4R)-3-cyano-4-(3-(4-(1-(2,6-dioxopiperidin-3-yl)-2-oxo-2,3-dihydro-1H-benzo[d]imidazol-5-yl)piperazin-1-yl)phenyl)pyrrolidine-1-carbonyl)-5-oxodecahydropyrrolo[1,2-a]azocin-6-yl)carbamoyl)benzo[b]thiophen-5-yl)difluoromethyl)phosphoryl)bis(oxy))bis(ethane-2,1-diyl)) dibutanethioate], the IC50 was below 0.1 µM.
For `CCCC(=O)SCCOP(=O)(OCCSC(=O)CCC)C(F)(F)c1ccc2sc(C(=O)N[C@H]3CCCC[C@H]4CC[C@@H](C(=O)N5C[C@@H](c6ccn(C7CCN(c8ccc9c(c8)[nH]c(=O)n9C8CCC(=O)NC8=O)CC7)c(=O)c6)CC56CC6)N4C3=O)cc2c1` (stereo partly drawn) [Compound 25, S,S((((2-(((3S,6S,10aS)-3-((6R)-6-(1-(1-(1-(2,6-dioxopiperidin-3-yl)-2-oxo-2,3-dihydro-1H-benzo[d]imidazol-5-yl)piperidin-4-yl)-2-oxo-1,2-dihydropyridin-4-yl)-4-azaspiro[2.4]heptane-4-carbonyl)-5-oxodecahydropyrrolo[1,2-a]azocin-6-yl)carbamoyl)benzo[b]thiophen-5-yl)difluoromethyl)phosphoryl)bis(oxy))bis(ethane-2,1-diyl)) dibutanethioate], the IC50 fell in the range of 0.1 to 1 µM.
